Water solubility and stability in solution data for one molecule are collected here from patent US20200030349A1, “PHYSIOLOGICALLY ACTIVE PREPARATION COMPRISING N-ACETYL-GLUCOSAMINE FOR THE TREATMENT OF BACK PAIN” (Natural Products & Drugs GmbH, priority 2017, published 2020).

One data set in a line: water solubility. It is filed as physicochemical. From the text:
(§1) Advantageously according to the invention, the composition for use in a method for the prophylaxis and/or treatment of back pain and the composition comprising at least two components are in the form of an oral dosage form. An oral dosage form is easy to handle and is accepted by a user without problems. In addition, the user can easily take the composition themself. It is preferably a solid form of administration, in particular in the form of capsules, tablets, dragées, granules and powders. Addition of the composition to functional foods, such as a bar for healthy nutrition, is also possible. Alternatively or in addition, a liquid dosage form, in particular in the form of drops, stable solutions and/or juices, is also possible.

A further data set can be described thus: stability in solution. To be noted: over pH range. It is filed as physicochemical.
Description: as §1

Turning to `CC(=O)N[C@H]1C(O)O[C@H](CO)[C@@H](O)[C@@H]1O` (stereo partly drawn) [N-acetyl-glucosamine, N-acetyl-D-glucosamine], in “water solubility”, the water solubility entry is “good water solubility”. The stability in solution result in “stability in solution” is reported as “stable in solution over a wide pH range”.
